From the supplement of paper PMC10627819

Legend:
[1] = tested on: S. aureus DSM 20231; test: Bliss interaction score (quartile over a dose matrix) (fitness difference); higher = more antagonism (negative = synergy)
How it was run: (§1)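 Combination data were used to infer fitness under each single drug. Fitness is the OD595 at entry into stationary phase divided by the robust mean of the plate's no-drug wells, with a cap of 1. The Bliss score is the observed minus the expected product fitness, summarised by quartiles over technical, biological and donor/recipient replicates.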

[2] = tested on: B. subtilis 168; test: as above
How it was run: as §1

[3] = tested on: S. pneumoniae D39V; test: as above
How it was run: as §1

[4] = tested on: S. aureus Newman; test: as above
How it was run: as §1

[5] = tested on: S. aureus DSM 20231; test: fitness (endpoint OD595 vs no drug) (fraction); higher = more growth
How it was run: (§2)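 Volumes were 30 µl per well, or 55 µl for S. pneumoniae, in 384-well plates inoculated at OD595 0.01. Media were TSB, LB Lennox or CY at 37 °C, and OD595 was read every 30 min for 14 h with first-reading background subtraction. Fitness is the ratio of optical density at stationary-phase entry to the robust mean of no-drug controls. That ratio is capped at 1.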

[6] = tested on: B. subtilis 168; test: as above
How it was run: as §2

[7] = tested on: S. pneumoniae D39V; test: as above
How it was run: as §2

[8] = first compound 0.0625 µg/mL, partner 0.25 µg/mL
[9] = first compound 0.0625 µg/mL, partner 0.5 µg/mL
[10] = first compound 0.125 µg/mL, partner 0.25 µg/mL
[11] = first compound 0.125 µg/mL, partner 0.5 µg/mL
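Wherever Bliss interaction score (quartile over a dose matrix) is given: first quartile when negative (synergy) and third quartile when positive (antagonism).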

`CCC[C@@H]1C[C@@H](C(=O)N[C@@H]([C@H]2O[C@H](SC)[C@H](O)[C@@H](O)[C@H]2O)[C@H](C)Cl)N(C)C1` [Clindamycin] + COc1cc(Cc2cnc(N)nc2N)cc(OC)c1OC [Trimethoprim] gave a Bliss interaction score [1] of 0.0511, a Bliss interaction score [2] of -0.144 and a Bliss interaction score [3] of 0.0411. The Bliss interaction score [4] was 0.196, the fitness ([5]; first compound 0.0312 µg/mL, partner 0.125 µg/mL) was 0.268 and the fitness ([5]; first compound 0.0312 µg/mL, partner 1 µg/mL) was 0.124. The fitness ([5]; first compound 0.0625 µg/mL, partner 0.125 µg/mL) was 0.0676, the fitness [5, 8] was 0.125 and the fitness [5, 9] was 0.0734. The fitness ([5]; first compound 0.0625 µg/mL, partner 1 µg/mL) was 0.0694, the fitness ([5]; first compound 0.125 µg/mL, partner 0.125 µg/mL) was 0.0245 and the fitness [5, 10] was 0.0812. It also gave a fitness [5, 11] of 0.0599, a fitness ([5]; first compound 0.125 µg/mL, partner 1 µg/mL) of 0.0452 and a fitness ([6]; first compound 0.0039 µg/mL, partner 0.125 µg/mL, one replicate) of 0.663. The fitness ([6]; first compound 0.0039 µg/mL, partner 0.25 µg/mL, one replicate) was 0.563, the fitness ([6]; first compound 0.0039 µg/mL, partner 0.5 µg/mL, one replicate) was 0.518 and the fitness ([6]; first compound 0.0078 µg/mL, partner 0.125 µg/mL, one replicate) was 0.603. For the same compound, the fitness ([6]; first compound 0.0078 µg/mL, partner 0.25 µg/mL, one replicate) was 0.511, the fitness ([6]; first compound 0.0078 µg/mL, partner 0.5 µg/mL, one replicate) was 0.481 and the fitness ([6]; first compound 0.0156 µg/mL, partner 0.125 µg/mL, one replicate) was 0.596. It also gave a fitness ([6]; first compound 0.0156 µg/mL, partner 0.25 µg/mL, one replicate) of 0.54, a fitness ([6]; first compound 0.0156 µg/mL, partner 0.5 µg/mL, one replicate) of 0.531 and a fitness ([6]; first compound 0.0625 µg/mL, partner 0.1 µg/mL, one replicate) of 0.461. It also gave a fitness ([6]; first compound 0.0625 µg/mL, partner 0.125 µg/mL, one replicate) of 0.38, a fitness ([6]; first compound 0.0625 µg/mL, partner 0.2 µg/mL, one replicate) of 0.271 and a fitness [6, 8] of 0.352. It also gave a fitness ([6]; first compound 0.0625 µg/mL, partner 0.4 µg/mL, one replicate) of 0.174, a fitness [6, 9] of 0.222 and a fitness ([6]; first compound 0.0625 µg/mL, partner 1 µg/mL, one replicate) of 0.041. For the same compound, the fitness ([6]; first compound 0.0625 µg/mL, partner 2 µg/mL, one replicate) was 0.0649, the fitness ([6]; first compound 0.125 µg/mL, partner 0.1 µg/mL, one replicate) was 0.256 and the fitness ([6]; first compound 0.125 µg/mL, partner 0.125 µg/mL, one replicate) was 0.179. The fitness ([6]; first compound 0.125 µg/mL, partner 0.2 µg/mL, one replicate) was 0.172, the fitness [6, 10] was 0.233 and the fitness ([6]; first compound 0.125 µg/mL, partner 0.4 µg/mL, one replicate) was 0.0828. The fitness [6, 11] was 0.101, the fitness ([6]; first compound 0.125 µg/mL, partner 1 µg/mL, one replicate) was 0.031 and the fitness ([6]; first compound 0.125 µg/mL, partner 2 µg/mL, one replicate) was 0.0548. For the same compound, the fitness ([6]; first compound 0.25 µg/mL, partner 0.1 µg/mL, one replicate) was 0.126, the fitness ([6]; first compound 0.25 µg/mL, partner 0.125 µg/mL, one replicate) was 0.0411 and the fitness ([6]; first compound 0.25 µg/mL, partner 0.2 µg/mL, one replicate) was 0.0757. The fitness ([6]; first compound 0.25 µg/mL, partner 0.25 µg/mL) was 0.083, the fitness ([6]; first compound 0.25 µg/mL, partner 0.4 µg/mL, one replicate) was 0.0475 and the fitness ([6]; first compound 0.25 µg/mL, partner 0.5 µg/mL) was 0.0589. For the same compound, the fitness ([6]; first compound 0.25 µg/mL, partner 1 µg/mL, one replicate) was 0.0278 and the fitness ([6]; first compound 0.25 µg/mL, partner 2 µg/mL, one replicate) was 0.0626.
With `CCC[C@@H]1C[C@@H](C(=O)N[C@@H]([C@H]2O[C@H](SC)[C@H](O)[C@@H](O)[C@H]2O)[C@@H](C)O)N(C)C1` [Lincomycin] + CN[C@H](CC(C)C)C(=O)N[C@H]1C(=O)N[C@@H](CC(N)=O)C(=O)N[C@H]2C(=O)N[C@H]3C(=O)N[C@H](C(=O)N[C@H](C(=O)O)c4cc(O)cc(O)c4-c4cc3ccc4O)[C@H](O)c3ccc(c(Cl)c3)Oc3cc2cc(c3O[C@@H]2O[C@H](CO)[C@@H](O)[C@H](O)[C@H]2O[C@H]2C[C@](C)(N)[C@H](O)[C@H](C)O2)Oc2ccc(cc2Cl)[C@H]1O [Vancomycin] the Bliss interaction score [1] was -0.0567, the Bliss interaction score [2] was 0.0223 and the Bliss interaction score [3] was 0.117. The Bliss interaction score [4] was 0.0733, the fitness ([5]; first compound 0.1 µg/mL, partner 0.1875 µg/mL) was 0.805 and the fitness ([5]; first compound 0.1 µg/mL, partner 0.375 µg/mL) was 0.873. It also gave a fitness ([5]; first compound 0.1 µg/mL, partner 0.75 µg/mL) of 0.922, a fitness ([5]; first compound 0.2 µg/mL, partner 0.1875 µg/mL) of 0.679 and a fitness ([5]; first compound 0.2 µg/mL, partner 0.375 µg/mL) of 0.701. It also gave a fitness ([5]; first compound 0.2 µg/mL, partner 0.75 µg/mL) of 0.745, a fitness ([5]; first compound 0.4 µg/mL, partner 0.1875 µg/mL) of 0.346 and a fitness ([5]; first compound 0.4 µg/mL, partner 0.375 µg/mL) of 0.336. The fitness ([5]; first compound 0.4 µg/mL, partner 0.75 µg/mL) was 0.371, the fitness ([7]; first compound 0.2 µg/mL, partner 0.03125 µg/mL) was 0.706 and the fitness ([7]; first compound 0.2 µg/mL, partner 0.0625 µg/mL) was 0.695. It also gave a fitness ([7]; first compound 0.2 µg/mL, partner 0.125 µg/mL) of 0.489, a fitness ([7]; first compound 0.215 µg/mL, partner 0.125 µg/mL) of 0.845 and a fitness ([7]; first compound 0.215 µg/mL, partner 0.25 µg/mL) of 0.782. For the same compound, the fitness ([7]; first compound 0.4 µg/mL, partner 0.03125 µg/mL) was 0.61, the fitness ([7]; first compound 0.4 µg/mL, partner 0.0625 µg/mL) was 0.604 and the fitness ([7]; first compound 0.43 µg/mL, partner 0.125 µg/mL) was 0.792. For the same compound, the fitness ([7]; first compound 0.43 µg/mL, partner 0.25 µg/mL) was 0.699, the fitness ([7]; first compound 0.43 µg/mL, partner 0.5 µg/mL) was 0.248 and the fitness ([7]; first compound 0.8 µg/mL, partner 0.03125 µg/mL) was 0.279. The fitness ([7]; first compound 0.8 µg/mL, partner 0.125 µg/mL) was 0.191, the fitness ([7]; first compound 0.86 µg/mL, partner 0.125 µg/mL) was 0.356 and the fitness ([7]; first compound 0.86 µg/mL, partner 0.25 µg/mL) was 0.311. The fitness ([7]; first compound 0.86 µg/mL, partner 0.5 µg/mL) was 0.0793.
